Measurements from ChEMBL document CHEMBL1201862, “PubChem BioAssay data set” (2004).
The source made the active and inactive calls.

How the values were obtained:
[1] = target: Paired box protein Pax-8 (Homo sapiens, UniProt Q06710); experiment: PAX8 transcriptional activity inhibition in RMG-I – RMG-I cells, luciferase, cherry-pick, dose response (AID 687027); assay type: functional, cell-based;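 note: luciferase reporter driven by Pax8 target thyroperoxidase promoter measured by SteadyGlo luminescence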
Sequence of Paired box protein Pax-8 (Q06710 whole entry): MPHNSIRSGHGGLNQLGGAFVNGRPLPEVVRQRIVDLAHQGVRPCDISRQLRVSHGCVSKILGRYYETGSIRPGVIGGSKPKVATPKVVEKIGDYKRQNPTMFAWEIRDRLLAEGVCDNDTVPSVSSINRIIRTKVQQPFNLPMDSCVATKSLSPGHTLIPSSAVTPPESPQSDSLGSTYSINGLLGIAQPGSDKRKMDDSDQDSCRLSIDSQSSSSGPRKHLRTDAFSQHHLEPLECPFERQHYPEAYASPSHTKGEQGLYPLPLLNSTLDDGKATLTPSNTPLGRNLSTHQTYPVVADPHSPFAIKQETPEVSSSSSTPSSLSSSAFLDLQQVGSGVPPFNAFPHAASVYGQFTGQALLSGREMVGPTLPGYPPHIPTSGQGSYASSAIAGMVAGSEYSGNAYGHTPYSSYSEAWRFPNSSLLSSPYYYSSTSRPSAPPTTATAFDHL

[2] = toxicity toward immortalized ovarian surface epithelium – cell-based, plate reader, dry powder samples, cytotoxicity control for PAX8 inhibitor project, dose response (AID 743045); assay type: functional
[3] = OVCAR-3 cell viability loss – plate reader, dry powder samples, PAX8 inhibitor project, dose response (AID 743044); assay type: functional, cell-based
[4] = IGROV1 cell killing – plate reader, dry powder samples, PAX8 inhibitor project, dose response (AID 743043); assay type: functional, cell-based; settings: IGROV-1
[5] = OVCAR8 cell viability loss – plate reader, dry powder samples, PAX8 project, dose response (AID 743197); assay type: functional, cell-based; settings: OVCAR-8
[6] = target: Ephrin type-A receptor 4 (Mus musculus, UniProt Q03137); experiment: EphA4 ligand-binding antagonists – biochemical, colorimetric, mouse EphA4, primary screen (AID 689); assay type: functional
Sequence of Ephrin type-A receptor 4 (Q03137 whole entry): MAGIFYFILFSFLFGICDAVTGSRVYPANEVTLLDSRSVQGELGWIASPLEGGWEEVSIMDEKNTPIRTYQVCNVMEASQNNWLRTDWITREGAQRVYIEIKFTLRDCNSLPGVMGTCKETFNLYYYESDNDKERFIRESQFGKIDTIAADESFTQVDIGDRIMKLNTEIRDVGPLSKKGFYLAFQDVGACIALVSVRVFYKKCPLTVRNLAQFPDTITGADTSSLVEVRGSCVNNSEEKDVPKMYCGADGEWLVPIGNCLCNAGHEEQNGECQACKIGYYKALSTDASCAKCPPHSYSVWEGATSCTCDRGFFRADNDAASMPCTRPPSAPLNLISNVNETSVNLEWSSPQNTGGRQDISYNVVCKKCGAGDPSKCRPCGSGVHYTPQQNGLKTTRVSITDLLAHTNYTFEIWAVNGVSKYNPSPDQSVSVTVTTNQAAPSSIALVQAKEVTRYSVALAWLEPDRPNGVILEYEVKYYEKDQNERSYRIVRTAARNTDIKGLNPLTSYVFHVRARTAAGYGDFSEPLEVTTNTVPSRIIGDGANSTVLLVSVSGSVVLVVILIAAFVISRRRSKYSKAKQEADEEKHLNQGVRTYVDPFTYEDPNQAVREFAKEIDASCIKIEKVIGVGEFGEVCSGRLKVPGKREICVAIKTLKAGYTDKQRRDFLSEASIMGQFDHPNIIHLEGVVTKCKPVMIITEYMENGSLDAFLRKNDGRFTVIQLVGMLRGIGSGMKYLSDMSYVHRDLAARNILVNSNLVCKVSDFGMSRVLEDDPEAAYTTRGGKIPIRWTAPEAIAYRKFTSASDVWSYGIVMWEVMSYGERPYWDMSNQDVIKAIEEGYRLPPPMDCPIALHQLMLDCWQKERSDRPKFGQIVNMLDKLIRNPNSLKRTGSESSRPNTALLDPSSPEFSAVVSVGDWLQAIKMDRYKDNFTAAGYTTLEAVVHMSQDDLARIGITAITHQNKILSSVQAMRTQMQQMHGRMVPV

[7] = IC50 of Artemis nuclease activity blockers – biochemical, fluorescence intensity, dose response (AID 720701); assay type: functional;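 note: Artemis endonuclease enzyme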
[8] = target: Glucose-6-phosphate 1-dehydrogenase (Homo sapiens, UniProt P11413); experiment: inhibition of Homo sapiens G6PD, dose series – biochemical, fluorescence, selectivity assay for P. falciparum G6PD inhibitor project, dose response (AID 504792); assay type: functional
Sequence of Glucose-6-phosphate 1-dehydrogenase (P11413 whole entry): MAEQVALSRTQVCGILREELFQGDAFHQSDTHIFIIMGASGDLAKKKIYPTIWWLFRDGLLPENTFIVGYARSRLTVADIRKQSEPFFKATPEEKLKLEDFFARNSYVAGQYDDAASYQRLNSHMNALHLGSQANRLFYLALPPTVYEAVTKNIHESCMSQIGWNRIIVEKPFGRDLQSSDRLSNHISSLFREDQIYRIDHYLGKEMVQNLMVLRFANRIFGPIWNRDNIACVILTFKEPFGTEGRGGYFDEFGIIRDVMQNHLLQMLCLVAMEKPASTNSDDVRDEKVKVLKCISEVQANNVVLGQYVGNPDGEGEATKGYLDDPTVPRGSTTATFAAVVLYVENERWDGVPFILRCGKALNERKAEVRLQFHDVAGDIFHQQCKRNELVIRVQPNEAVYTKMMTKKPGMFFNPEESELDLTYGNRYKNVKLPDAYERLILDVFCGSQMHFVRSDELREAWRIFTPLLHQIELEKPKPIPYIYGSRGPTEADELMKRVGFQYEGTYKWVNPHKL

[9] = viability loss in HeLa cells – cytotoxicity control for MgcRacGAP inhibitor project, dose response (AID 624300); assay type: functional
[10] = target: T1, Rac GTPase-activating protein 1 (Homo sapiens, UniProt Q9H0H5); experiment: blockers of MgcRacGAP-driven Rac1 GTP hydrolysis – biochemical, ADP Hunter fluorescence, primary and confirmatory, confirmation (AID 624330); assay type: functional
T1 sequence (Q9H0H5 whole entry): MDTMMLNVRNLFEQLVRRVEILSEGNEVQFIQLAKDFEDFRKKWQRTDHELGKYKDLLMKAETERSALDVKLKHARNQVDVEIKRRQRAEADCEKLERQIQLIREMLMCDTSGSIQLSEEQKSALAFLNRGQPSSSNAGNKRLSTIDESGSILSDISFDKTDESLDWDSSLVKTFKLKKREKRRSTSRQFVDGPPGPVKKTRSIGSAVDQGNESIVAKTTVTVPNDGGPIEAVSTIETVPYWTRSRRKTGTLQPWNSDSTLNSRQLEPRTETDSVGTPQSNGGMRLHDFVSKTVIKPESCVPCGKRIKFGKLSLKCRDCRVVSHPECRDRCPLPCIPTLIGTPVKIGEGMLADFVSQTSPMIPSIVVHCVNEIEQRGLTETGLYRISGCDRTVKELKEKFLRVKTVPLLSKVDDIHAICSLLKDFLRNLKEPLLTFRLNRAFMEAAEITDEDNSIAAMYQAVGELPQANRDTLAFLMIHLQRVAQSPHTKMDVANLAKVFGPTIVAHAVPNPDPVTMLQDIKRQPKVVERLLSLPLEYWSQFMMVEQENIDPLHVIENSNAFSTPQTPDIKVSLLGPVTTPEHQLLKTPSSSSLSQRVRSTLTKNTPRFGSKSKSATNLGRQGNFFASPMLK

[11] = target: T2, Long-chain-fatty-acid--AMP ligase FadD28 (Mycobacterium tuberculosis, UniProt P9WQ59); experiment: Fluorescence polarization aasay to screen for inhibitors that compete for the binding of FadD28 to a bisubstrate Measured in Biochemical System Using Plate Reader - 2147-01_Inhibitor_Dose_CherryPick_Activity.; assay type: functional, Mycobacterium tuberculosis H37Rv
T2 sequence (P9WQ59 whole entry): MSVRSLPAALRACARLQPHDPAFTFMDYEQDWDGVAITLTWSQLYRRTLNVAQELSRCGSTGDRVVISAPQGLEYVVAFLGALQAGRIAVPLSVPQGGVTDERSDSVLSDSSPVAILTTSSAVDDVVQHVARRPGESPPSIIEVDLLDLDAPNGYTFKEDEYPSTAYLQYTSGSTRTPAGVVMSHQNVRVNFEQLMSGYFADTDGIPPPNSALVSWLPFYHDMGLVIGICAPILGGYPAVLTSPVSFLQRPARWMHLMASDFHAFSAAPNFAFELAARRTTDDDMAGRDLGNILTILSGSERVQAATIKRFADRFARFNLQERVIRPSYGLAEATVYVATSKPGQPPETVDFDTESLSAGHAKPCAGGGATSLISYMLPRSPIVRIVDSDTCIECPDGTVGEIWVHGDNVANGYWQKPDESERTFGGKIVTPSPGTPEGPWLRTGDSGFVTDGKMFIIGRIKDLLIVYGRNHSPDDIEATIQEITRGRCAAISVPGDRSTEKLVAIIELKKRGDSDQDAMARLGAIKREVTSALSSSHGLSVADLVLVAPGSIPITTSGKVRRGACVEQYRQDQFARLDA

[12] = target: Kallikrein-7 (Homo sapiens, UniProt P49862); experiment: Fluorescence Intensity-based biochemical primary high throughput dose response assay to identify activators of kallikrein-7 (K7) zymogen.
Sequence of Kallikrein-7 (P49862 whole entry, the tested form may be a part): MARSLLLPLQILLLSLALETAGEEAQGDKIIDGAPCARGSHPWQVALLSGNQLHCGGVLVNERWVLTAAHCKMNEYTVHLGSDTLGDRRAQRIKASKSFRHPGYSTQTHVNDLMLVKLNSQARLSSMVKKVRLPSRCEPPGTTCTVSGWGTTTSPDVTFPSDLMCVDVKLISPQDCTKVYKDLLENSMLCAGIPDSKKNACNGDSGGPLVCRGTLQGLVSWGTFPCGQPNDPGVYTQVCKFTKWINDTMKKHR

[13] = target: T3, Oxysterols receptor LXR-beta (Homo sapiens, UniProt P55055); assay type: functional, cell-based;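 note: Cell-based luminescence dose-response assay of agonist activity at LXR, run as a confirmatory counterscreen to a daf-12 agonist screen; HEK293 cells with Gal4-LXR fusion and GAL4-driven luciferase reporter; agonist potency from rising luciferase signal of a Gal4-LXR reporter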
T3 sequence (P55055 whole entry): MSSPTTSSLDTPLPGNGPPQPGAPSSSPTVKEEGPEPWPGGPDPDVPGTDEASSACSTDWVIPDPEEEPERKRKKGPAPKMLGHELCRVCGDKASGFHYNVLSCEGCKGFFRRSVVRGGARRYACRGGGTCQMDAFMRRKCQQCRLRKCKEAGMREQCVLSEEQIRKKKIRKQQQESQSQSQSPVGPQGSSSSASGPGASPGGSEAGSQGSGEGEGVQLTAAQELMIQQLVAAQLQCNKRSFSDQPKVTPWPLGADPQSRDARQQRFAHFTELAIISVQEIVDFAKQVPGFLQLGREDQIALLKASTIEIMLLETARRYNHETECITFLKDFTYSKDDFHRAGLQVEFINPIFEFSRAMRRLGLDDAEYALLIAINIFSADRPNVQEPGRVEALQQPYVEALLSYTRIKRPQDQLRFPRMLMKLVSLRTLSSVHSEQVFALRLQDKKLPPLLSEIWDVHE

[14] = cells
[15] = target: Luciferin 4-monooxygenase (Photinus pyralis, UniProt P08659); experiment: inhibition of purified Photinus pyralis luciferase – biochemical, luminescence, dose response (AID 1891)
Sequence of Luciferin 4-monooxygenase (P08659 whole entry): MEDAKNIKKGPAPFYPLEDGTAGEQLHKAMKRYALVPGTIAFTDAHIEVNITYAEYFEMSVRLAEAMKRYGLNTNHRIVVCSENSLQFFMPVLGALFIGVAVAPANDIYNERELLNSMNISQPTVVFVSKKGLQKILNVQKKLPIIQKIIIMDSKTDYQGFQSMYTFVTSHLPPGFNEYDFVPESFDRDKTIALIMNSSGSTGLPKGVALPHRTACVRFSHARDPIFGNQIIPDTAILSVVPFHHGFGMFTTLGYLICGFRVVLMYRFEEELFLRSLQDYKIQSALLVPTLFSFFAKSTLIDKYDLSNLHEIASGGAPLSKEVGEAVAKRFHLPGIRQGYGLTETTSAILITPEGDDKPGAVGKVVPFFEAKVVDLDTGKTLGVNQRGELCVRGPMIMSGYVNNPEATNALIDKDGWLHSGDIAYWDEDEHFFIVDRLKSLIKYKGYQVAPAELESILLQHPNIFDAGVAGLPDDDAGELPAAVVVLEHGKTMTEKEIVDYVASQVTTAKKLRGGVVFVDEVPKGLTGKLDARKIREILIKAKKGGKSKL

[16] = Luminescence Cell-Based Dose Confirmation HTS to Identify Inhibitors of Platelet Dense Granule Release. [Related pubchem assays: 1663 (Primary HTS), 1678 (Summary of Project)]; assay type: functional
[17] = target: T4, Probable nicotinate-nucleotide adenylyltransferase (Staphylococcus aureus (strain N315), UniProt P65502); assay type: functional, Staphylococcus aureus subsp. aureus N315;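 for IC50 Mean: confirmatory dose-response retesting of NadD inhibitor hits first found in an ultra-high-throughput screen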
T4 sequence (P65502 whole entry): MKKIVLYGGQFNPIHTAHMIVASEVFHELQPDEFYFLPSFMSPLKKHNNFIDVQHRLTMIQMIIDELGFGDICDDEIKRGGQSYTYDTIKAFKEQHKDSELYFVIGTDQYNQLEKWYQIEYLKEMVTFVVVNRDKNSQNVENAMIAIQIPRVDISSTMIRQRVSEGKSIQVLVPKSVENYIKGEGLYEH

[18] = target: T4, Probable nicotinate-nucleotide adenylyltransferase; assay type: functional, Staphylococcus aureus subsp. aureus N315; settings: read-out: IC50_Mean
[19] = target: T5, Carboxy-terminal domain RNA polymerase II polypeptide A small phosphatase 1 (Homo sapiens, UniProt Q9GZU7); experiment: CTDSP1 inhibitors, concentration-response, biochemical, absorbance readout, ultra-high-throughput screen actives (AID 540297); assay type: functional
T5 sequence (Q9GZU7 whole entry): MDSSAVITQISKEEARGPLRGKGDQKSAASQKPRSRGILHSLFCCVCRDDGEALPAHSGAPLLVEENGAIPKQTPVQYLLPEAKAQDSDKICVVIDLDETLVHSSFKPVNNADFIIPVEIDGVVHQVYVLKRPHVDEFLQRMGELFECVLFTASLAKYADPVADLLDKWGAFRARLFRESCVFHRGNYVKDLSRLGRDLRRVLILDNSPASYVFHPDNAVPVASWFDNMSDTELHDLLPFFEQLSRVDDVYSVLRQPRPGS

[20] = target: T6, Caspase-6 (Homo sapiens, UniProt P55212); experiment: inhibition of CASP6 peptide cleavage – biochemical, VEID-R110 fluorescence, cherry-pick, dose response (AID 720632)
T6 sequence (P55212 whole entry): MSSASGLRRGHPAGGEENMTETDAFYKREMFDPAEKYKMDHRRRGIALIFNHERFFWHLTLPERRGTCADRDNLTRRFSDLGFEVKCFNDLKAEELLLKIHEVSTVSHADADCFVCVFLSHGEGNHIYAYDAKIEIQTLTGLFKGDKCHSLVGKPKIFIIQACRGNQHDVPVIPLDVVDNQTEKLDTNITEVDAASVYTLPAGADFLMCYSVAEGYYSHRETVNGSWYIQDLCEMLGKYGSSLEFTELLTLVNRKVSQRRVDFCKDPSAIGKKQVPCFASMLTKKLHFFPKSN

[21] = system: H9c2; experiment: cells; assay type: functional, cell-based; settings: Rattus norvegicus, H9c2, Myocardium;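 note: confirmatory concentration-response retest of ultra-high-throughput screening hits for modulation of myocardial damage; cell death induced by hydrogen peroxide oxidative stress; compound pretreatment for 60 min then peroxide exposure for 2 h; potency is for protecting the cells against peroxide damage rather than for killing them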
[22] = target: T7, Galanin receptor type 3 (Homo sapiens, UniProt O60755); experiment: Fluorescence-based cell-based primary high throughput dose response assay to identify antagonists of the Galanin Receptor 3 (GalR3).; assay type: functional
T7 sequence (O60755 whole entry): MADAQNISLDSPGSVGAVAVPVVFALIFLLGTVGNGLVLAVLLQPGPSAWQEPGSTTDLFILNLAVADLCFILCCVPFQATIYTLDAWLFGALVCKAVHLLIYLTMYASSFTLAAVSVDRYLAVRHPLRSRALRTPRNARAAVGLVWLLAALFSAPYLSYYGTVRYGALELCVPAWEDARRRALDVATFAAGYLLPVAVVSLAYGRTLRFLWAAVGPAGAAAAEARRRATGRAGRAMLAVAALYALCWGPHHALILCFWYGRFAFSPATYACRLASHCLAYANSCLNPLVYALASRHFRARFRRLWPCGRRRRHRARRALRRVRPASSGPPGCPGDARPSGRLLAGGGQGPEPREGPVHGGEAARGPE

[23] = cells; assay type: functional, cell-based; settings: HEK-CNG
[24] = system: Streptococcus sp. 'group A'; experiment: Streptococcus pyogenes SK(-)GAS viability under kanamycin – luminescence, BacTiterGlo, confirmation, counter-screen for streptokinase expression inhibitor project, dose response (AID 1900); assay type: functional, organism-based
[25] = system: Streptococcus; experiment: GAS UMAA2166 growth inhibition – luminescence, BacTiterGlo, counter-screen for streptokinase expression inhibitor project, dose response (AID 1915); assay type: functional, organism-based;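 note: potency for reduction of bacterial viability or growth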
[26] = target: T8, Low molecular weight phosphotyrosine protein phosphatase (Homo sapiens, UniProt P24666); assay type: functional; settings: read-out: IC50_Mean;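 note: Dose-response confirmation assay measuring inhibition of LMPTP enzyme activity by fluorescence intensity read-out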
T8 sequence (P24666 whole entry): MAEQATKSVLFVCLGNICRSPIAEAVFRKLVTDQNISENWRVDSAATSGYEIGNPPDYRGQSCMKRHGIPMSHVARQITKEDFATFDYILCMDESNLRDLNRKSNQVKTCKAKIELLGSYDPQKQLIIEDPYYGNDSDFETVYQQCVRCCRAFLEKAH

C[C@@H]1CN([C@H](C)CO)C(=O)c2cc(NC(=O)Nc3ccc(C(F)(F)F)cc3)ccc2O[C@@H](C)CCCCO[C@H]1CN(C)C(=O)c1ccccc1
AC50 [1]: 12.1 µM (active)
AC50 [2]: 37.5 µM (active)
AC50 [3]: 33.2 µM (active)
AC50 [4]: 35.6 µM (active)
AC50 [5]: 50.7 µM (active)

CCSC1=N/C(=C\c2ccc(-c3ccccc3[N+](=O)[O-])o2)C(=O)S1
IC50 [6]: > 100 µM (not active)
IC50 [7]: 0.967 µM (active)

COc1cccc(CNc2ccc3[nH]c(O)nc3c2)c1OCc1ccccc1Cl
IC50 [8]: > 80 µM (inactive)
CC50 [9]: 100 µM (active)
IC50 [10]: 69 µM (active)

Cc1ccc(NC(=O)CNc2ccccc2N2CCCC2=O)cc1S(=O)(=O)N1CCCCC1
AC50 [11]: 48.3 µM (active)

CCC(NC(=O)CCc1c(C)c2cc3c(C)c(C)oc3cc2oc1=O)C(=O)N[C@@H](Cc1ccccc1)C(=O)O (stereo not given in full)
EC50 [12]: > 69.5 µM (inactive)

Cc1ccc(-c2nc(O)c3sccc3n2)cc1
EC50 [13]: > 67.5 µM (inactive)
EC50 [14]: > 67.5 µM (inactive)

Cc1ccc(N=Nc2cc(C)ccc2N)cc1
EC50 [15]: 0.149 µM (active)
EC50 [16]: 3.15 µM (active)
EC50 [13]: > 67.5 µM (inactive)
EC50 [14]: > 67.5 µM (inactive)

Oc1ccc(C[C@H]2CNC(=S)N2CC2CCCN2C[C@H](Cc2ccc(O)cc2)N2C[C@H](Cc3ccccc3)N(CC3CCCCC3)C2=S)cc1 (stereo not given in full)
IC50 [17]: 16.3 µM (active)
IC50 [18]: 22.1 µM (active)

CC1CCC2(CC1)NC(=O)N(CC(=O)Nc1sc3c(c1C(N)=O)CCC3)C2=O (stereo not given)
IC50 [19]: 3.44 µM (active)
AC50 [20]: 10.9 µM (active)

N#CC(c1nc2ccccc2nc1N1CCCC1)S(=O)(=O)c1cccs1 (stereo not given)
IC50 [6]: > 100 µM (not active)
IC50 [21]: > 79 µM (inactive)

CC(C)(C)c1cc(/C=N/NC(=O)Cc2nc3ccccc3[nH]2)cc(C(C)(C)C)c1O
IC50 [7]: > 20 µM (inactive)

O=C(O)c1ccc(N/N=C/c2cc(Br)cs2)cc1
AC50 [11]: 32 µM (inactive)

Nc1c(Br)cc(Br)c2c1nc(O)c1ccccc12
AC50 [20]: 18.1 µM (active)

O=[N+]([O-])c1[nH]c2nc(O)nc-2cc1Cl
IC50 [22]: 16.7 µM (inactive)
EC50 [23]: > 29.9 µM (inactive)

Cc1ccc(S(=O)(=O)/C(C#N)=C/c2c(N3CCOCC3)nc3ccccn3c2=O)cc1
IC50 [6]: > 100 µM (not active)

CC[C@H]1OC(=O)[C@H](C)[C@@H](O[C@H]2C[C@@](C)(OC)[C@@H](O)[C@H](C)O2)[C@H](C)[C@@H](O[C@@H]2O[C@H](C)C[C@H](N(C)C)[C@H]2O)[C@](C)(O)C[C@@H](C)C(=O)[C@H](C)[C@@H](O)[C@]1(C)O [ERYTHROMYCIN]
EC50 [24]: < 0.06 µM (active)
EC50 [25]: < 0.06 µM (active)
IC50 [26]: 47.1 µM (inactive)

CC1CCCCN1C(=O)CSc1nnc(-c2ccccc2O)o1 (stereo not given)
EC50 [13]: > 67.5 µM (inactive)
EC50 [14]: > 67.5 µM (inactive)
